Experimental data published in PMC314469, “Protein Interaction Networks by Proteome Peptide Scanning” (PLoS Biology, 2004).

Tested on: Myo5 SH3 domain
Experiment: SPOT analysis of cellulose-bound peptides (WISE), Myo5 SH3 domain (Dataset S4)
Type: binding, Saccharomyces cerevisiae
Details: SPOT analysis of cellulose-bound peptides probed with Myo5 SH3 domain; normalized value

SLTSLPPPPPPQFS
The normalized value in BLU units (SPOT analysis, Myo5 SH3): 7261.1 BLU
